Values after ≈ are worked out from the molar mass of the structure shown. Values joined by “and” are separate entries in the source; they are usually repeats but may differ in a detail not shown here. Equal values may be shown once. Blank lines part the entries; values can stand above or below the molecule they belong to.
Legend:
Assay in all cases: ≥ marks a high value that may be exact or a test limit, other limits are often not marked, values filed in µg/mL are converted to µM
[1] = test system: Staphylococcus aureus
[2] = test system: Salmonella typhimurium
[3] = test system: Escherichia coli
[4] = test system: Bacillus subtilis
[5] = test system: Pseudomonas aeruginosa ATCC 27853
[6] = test system: Acinetobacter baumannii ATCC 19606
[7] = test system: Escherichia coli ATCC 25922
[8] = test system: Staphylococcus aureus MR
[9] = test system: Staphylococcus aureus ATCC 25923
[10] = test system: Acinetobacter baumannii
[11] = test system: Staphylococcus aureus ATCC 29213
[12] = test system: Candida albicans ATCC 90028
[13] = test system: Klebsiella pneumoniae ATCC 13883
[14] = test system: Pseudomonas aeruginosa PAO1
[15] = test system: Staphylococcus aureus USA 300
[16] = test system: Escherichia coli NCTC 10418
[17] = test system: Streptococcus mutans
[18] = test system: Escherichia coli UB1005
[19] = test system: Salmonella enterica subsp. enterica serovar Pullorum C79-13
[20] = test system: Salmonella enterica subsp. enterica serovar Typhimurium C77-31
[21] = test system: Staphylococcus epidermidis ATCC 12228
[22] = test system: Enterococcus faecalis ATCC 29212
[23] = test system: Salmonella enterica subsp. enterica serovar Typhimurium ATCC 14028
[24] = test system: Bacillus subtilis KCTC 3068
[25] = test system: Pseudomonas aeruginosa KCTC 1637
[26] = test system: Salmonella typhimurium KCTC 1926
[27] = test system: Staphylococcus aureus KCTC 1621
[28] = test system: Escherichia coli KCTC 1682
[29] = test system: Staphylococcus epidermidis KCTC 1917

MIC [5]: 1.25 µM (≈ 1.98 µg/mL)
MIC [6]: ≥ 50.5 µM
MIC [7]: 0.626 µM (≈ 0.992 µg/mL)
MIC [8]: ≥ 202 µM
MIC [9]: ≥ 202 µM
MIC [10]: 12.6 µM (≈ 20 µg/mL)
MIC [11]: 1.25 µM (≈ 1.98 µg/mL)
MIC [12]: 2.5 µM (≈ 3.96 µg/mL)
SMILES: CC[C@H](C)[C@H](NC(=O)[C@H](CCCN=C(N)N)NC(=O)[C@H](CCC(N)=O)NC(=O)[C@@H](NC(=O)[C@@H](NC(=O)[C@H](CCCN=C(N)N)NC(=O)[C@@H](N)CCCCN)[C@@H](C)CC)C(C)C)C(=O)N[C@@H](CCCCN)C(=O)N[C@@H](CCCCN)C(=O)N[C@@H](Cc1ccccc1)C(=O)N[C@@H](CC(C)C)C(=O)N[C@@H](CCCN=C(N)N)C(=O)O [KRIVQRIKKFLR]

MIC [7]: > 25 µM
MIC [13]: 25 µM (≈ 25 µg/mL)
MIC [14]: > 25 µM
MIC [15]: 25 µM (≈ 25 µg/mL)
SMILES: CC(C)C[C@H](NC(=O)[C@H](CC(C)C)NC(=O)[C@H](CCCCN)NC(=O)CNC(=O)[C@H](CC(C)C)NC(=O)[C@H](CO)NC(=O)[C@H](CO)NC(=O)[C@H](CC(C)C)NC(=O)[C@H](CC(C)C)NC(=O)CN)C(N)=O [GLLSSLGKLL]

MIC [5]: 64 µM (≈ 67.8 µg/mL)
MIC [7]: 64 µM and 128 µM
MIC [18]: ≥ 128 µM
MIC [19]: ≥ 64 µM
MIC [20]: ≥ 64 µM
MIC [21]: 32 µM (≈ 33.9 µg/mL)
MIC [22]: > 128 µM
MIC [11]: 64 µM and 128 µM
MIC [23]: 32 µM (≈ 33.9 µg/mL)
SMILES: CC(C)C[C@H](NC(=O)[C@H](Cc1ccccc1)NC(=O)[C@@H]1CCCN1C(=O)[C@H](Cc1c[nH]c2ccccc12)NC(=O)[C@@H](N)Cc1c[nH]c2ccccc12)C(=O)N[C@@H](CCCN=C(N)N)C(=O)N[C@@H](CCCN=C(N)N)C(N)=O [WWPFLRR]

MIC [17]: 4.52 µM (≈ 16 µg/mL)
SMILES: CC[C@H](C)[C@H](NC(=O)CNC(=O)CNC(=O)CNC(=O)[C@H](Cc1cnc[nH]1)NC(=O)[C@H](CC(C)C)NC(=O)[C@H](CC(C)C)NC(=O)[C@H](Cc1cnc[nH]1)NC(=O)[C@H](Cc1cnc[nH]1)NC(=O)[C@H](CC(C)C)NC(=O)[C@H](CCCCN)NC(=O)[C@H](CCCCN)NC(=O)[C@H](CC(C)C)NC(=O)[C@H](CC(C)C)NC(=O)[C@H](CCCN=C(N)N)NC(=O)[C@H](CCCN=C(N)N)NC(=O)[C@H](Cc1c[nH]c2ccccc12)NC(=O)[C@@H](N)CCCN=C(N)N)C(=O)N[C@@H](CCCCN)C(=O)N[C@@H](CCC(N)=O)C(=O)N[C@@H](CC(C)C)C(=O)N[C@@H](CC(C)C)C(=O)N[C@@H](Cc1cnc[nH]1)C(=O)N[C@@H](Cc1ccccc1)C(=O)N[C@@H](Cc1ccccc1)C(=O)N[C@@H](CCC(N)=O)C(=O)N[C@@H](CCCN=C(N)N)C(=O)N[C@@H](Cc1ccccc1)C(N)=O [RWRRLLKKLHHLLHGGGIKQLLHFFQRF]

The next lines start with the molecule.

SMILES: CC(C)[C@H](NC(=O)CNC(=O)[C@H](CCCN=C(N)N)NC(=O)[C@@H](NC(=O)[C@@H](NC(=O)[C@@H](NC(=O)[C@H](CCCN=C(N)N)NC(=O)CNC(=O)[C@H](Cc1c[nH]c2ccccc12)NC(=O)[C@H](CCCN=C(N)N)NC(=O)[C@@H](NC(=O)[C@@H](NC(=O)[C@@H](NC(=O)CN)C(C)C)C(C)C)C(C)C)C(C)C)C(C)C)C(C)C)C(=O)N[C@@H](CCCN=C(N)N)C(=O)N[C@@H](CCCN=C(N)N)C(N)=O [GVVVRWGRVVVRGVRR]
MIC [1]: 8 µM (≈ 14.8 µg/mL)
MIC [2]: 4 µM (≈ 7.4 µg/mL)
MIC [3]: 8 µM (≈ 14.8 µg/mL)
MIC [4]: 4 µM (≈ 7.4 µg/mL)

SMILES: C[C@H](NC(=O)CN)C(=O)N1CCC[C@H]1C(=O)N[C@@H](CCCCN)C(=O)NCC(=O)N[C@H]1CSSC[C@@H](C(=O)N[C@@H](CCCCN)C(N)=O)NC(=O)[C@@H]2CCCN2C(=O)[C@H](CCCCN)NC(=O)[C@@H]2CCCN2C(=O)[C@@H]2CCCN2C(=O)[C@H](Cc2ccc(O)cc2)NC(=O)[C@H](CO)NC(=O)[C@H](CCCCN)NC(=O)[C@H]([C@@H](C)O)NC(=O)[C@H](Cc2c[nH]c3ccccc23)NC1=O [GAPKGCWTKSYPPKPCK]
MIC [16]: ≥ 160 µM

SMILES: CC(C)C[C@H](NC(=O)[C@H](CC(C)C)NC(=O)[C@H](Cc1cnc[nH]1)NC(=O)[C@H](Cc1cnc[nH]1)NC(=O)[C@H](CC(C)C)NC(=O)[C@H](Cc1cnc[nH]1)NC(=O)[C@H](CCCCN)NC(=O)[C@H](CC(C)C)NC(=O)[C@H](CC(C)C)NC(=O)[C@H](CCCCN)NC(=O)[C@H](CCCCN)NC(=O)[C@H](CC(C)C)NC(=O)[C@@H](N)CCCCN)C(=O)N[C@@H](Cc1cnc[nH]1)C(N)=O [KLKKLLKHLHHLLH]
MIC [17]: 4.55 µM (≈ 8 µg/mL)

SMILES: NCCCC[C@H](NC(=O)[C@H](Cc1c[nH]c2ccccc12)NC(=O)[C@H](CCCN=C(N)N)NC(=O)[C@H](CCCCN)NC(=O)[C@H](CCCN=C(N)N)NC(=O)[C@H](Cc1c[nH]c2ccccc12)NC(=O)[C@@H](N)CCCN=C(N)N)C(=O)O [RWRKRWK]
MIC [17]: ≥ 224 µM

SMILES: C[C@H](N)C(=O)N[C@@H](CCC(N)=O)C(=O)N[C@@H](C)C(=O)N[C@@H](C)C(=O)N[C@@H](CCCCN)C(=O)N[C@@H](CCC(N)=O)C(=O)N[C@@H](C)C(=O)N[C@@H](C)C(=O)N[C@@H](CCCCN)C(=O)N[C@@H](C)C(=O)N[C@@H](C)C(=O)N[C@@H](CCCCN)C(=O)N[C@@H](CCC(N)=O)C(=O)N[C@@H](Cc1ccccc1)C(N)=O [AQAAKQAAKAAKQF]
MIC [17]: ≥ 87.3 µM

SMILES: CC(C)C[C@H](NC(=O)[C@H](C)NC(=O)[C@H](Cc1c[nH]c2ccccc12)NC(=O)[C@H](CCCCN)NC(=O)[C@H](CC(N)=O)NC(=O)[C@H](Cc1c[nH]c2ccccc12)NC(=O)[C@H](CCCCN)NC(=O)[C@H](CCCCN)NC(=O)[C@H](CCCN=C(N)N)NC(=O)[C@H](Cc1ccccc1)NC(=O)[C@H](CCC(=O)O)NC(=O)[C@H](CO)NC(=O)[C@H](C)NC(=O)[C@@H](NC(=O)[C@H](CC(=O)O)NC(=O)[C@H](CC(C)C)NC(=O)[C@H](CCCN=C(N)N)NC(=O)[C@H](C)N)C(C)C)C(=O)N[C@@H](CO)C(=O)N[C@@H](CCCN=C(N)N)C(N)=O [ARLDVASEFRKKWNKWALSR]
MIC [24]: 8 µM (≈ 19.7 µg/mL)
MIC [25]: ≥ 32 µM
MIC [26]: 16 µM (≈ 39.4 µg/mL)
MIC [27]: 16 µM (≈ 39.4 µg/mL)
MIC [28]: 8 µM (≈ 19.7 µg/mL)
MIC [29]: 8 µM (≈ 19.7 µg/mL)

SMILES: CC(C)C[C@H](NC(=O)CNC(=O)CNC(=O)CNC(=O)[C@H](Cc1c[nH]c2ccccc12)NC(=O)[C@H](CCCCN)NC(=O)[C@H](Cc1c[nH]c2ccccc12)NC(=O)[C@H](CCCCN)NC(=O)[C@H](Cc1c[nH]c2ccccc12)NC(=O)[C@H](CCCCN)NC(=O)CNC(=O)[C@H](CC(N)=O)NC(=O)[C@H](CCCCN)NC(=O)[C@H](Cc1c[nH]c2ccccc12)NC(=O)[C@H](CCCCN)NC(=O)[C@H](Cc1c[nH]c2ccccc12)NC(=O)[C@H](CCCCN)NC(=O)[C@@H](N)Cc1c[nH]c2ccccc12)C(=O)N[C@H](C(=O)N[C@H](C(=O)N[C@@H](CC(C)C)C(=O)N[C@H](C(=O)N[C@@H](Cc1ccccc1)C(=O)N[C@H](C(=O)O)C(C)C)C(C)C)[C@@H](C)O)C(C)C [WKWKWKNGKWKWKWGGGLVTLVFV]
MIC [7]: 2 µM (≈ 6.04 µg/mL)
MIC [19]: 8 µM (≈ 24.1 µg/mL)
MIC [20]: ≥ 128 µM
MIC [21]: 32 µM (≈ 96.6 µg/mL)
MIC [22]: 16 µM (≈ 48.3 µg/mL)
MIC [11]: 8 µM (≈ 24.1 µg/mL)

SMILES: CC[C@H](C)[C@H](NC(=O)[C@H](Cc1ccccc1)NC(=O)[C@H](Cc1cnc[nH]1)NC(=O)[C@@H](NC(=O)[C@H](Cc1ccccc1)NC(=O)[C@H](CCC(N)=O)NC(=O)[C@H](CCCCN)NC(=O)[C@@H](N)CC(C)C)C(C)C)C(=O)N[C@@H](Cc1cnc[nH]1)C(=O)N[C@@H](CCCN=C(N)N)C(=O)N[C@@H](Cc1ccccc1)C(N)=O [LKQFVHFIHRF]
MIC [17]: 21.7 µM (≈ 32 µg/mL)

SMILES: NCCCC[C@H](NC(=O)[C@H](CCCN=C(N)N)NC(=O)[C@H](CCCN=C(N)N)NC(=O)[C@H](Cc1c[nH]c2ccccc12)NC(=O)[C@H](Cc1c[nH]c2ccccc12)NC(=O)[C@H](CCCN=C(N)N)NC(=O)[C@@H](N)CCCN=C(N)N)C(=O)O [RRWWRRK]
MIC [17]: ≥ 109 µM

Source: DBAASP
